The values that follow come from ChEMBL document CHEMBL5500371, “Arginine and tryptophan-rich dendritic antimicrobial peptides that disrupt membranes for bacterial infection in vivo” (Eur J Med Chem, 2024).

Structures are written as SMILES. Converted amounts (≈) assume the structure as drawn. Where a SMILES comes first, the peptide text is derived from it. Side-chain parts run from the residue outwards.

Data set [1] concerns Staphylococcus aureus. Description: Antibacterial activity against Staphylococcus aureus ATCC 25923 assessed as inhibition of bacterial growth incubated for 20 hrs by broth microdilution method. It is filed as functional. (Dilution methods test growth across graded concentrations, often in twofold steps.)
For data set [2], the system named is Erythrocyte. Description: Hemolytic activity in mouse erythrocytes assessed as 10% hemolysis incubated for 1 hr by absorbance based analysis. Format: toxicity, cell-based.
For data set [3], the system named is Klebsiella pneumoniae. Description: Antibacterial activity against Klebsiella pneumoniae ATCC 700603 assessed as inhibition of bacterial growth incubated for 20 hrs by broth microdilution method. It is filed as functional.
Data set [4] concerns Acinetobacter baumannii. Description: Antibacterial activity against Acinetobacter baumannii ATCC 19606 assessed as inhibition of bacterial growth incubated for 20 hrs by broth microdilution method. It is filed as functional.
Data set [5] concerns Escherichia coli. Description: Antibacterial activity against Escherichia coli ATCC 25922 assessed as inhibition of bacterial growth incubated for 20 hrs by broth microdilution method. It is filed as functional.
Data set [6] in a line: Cytotoxicity against HEK293T cells assessed as cell death measured after 1 hr by resazurin dye based analysis. Format: toxicity, HEK-293T. As to conditions: human, HEK293T cells.
The subject of data set [7] is Bacillus subtilis. Description: Antibacterial activity against Bacillus subtilis ATCC 23857 assessed as inhibition of bacterial growth incubated for 20 hrs by broth microdilution method. It is filed as functional.
Data set [8] concerns Pseudomonas aeruginosa. Description: Antibacterial activity against Pseudomonas aeruginosa ATCC 27853 assessed as inhibition of bacterial growth incubated for 20 hrs by broth microdilution method. It is filed as functional.

Regarding `N=C(N)NCCC[C@H](NC(=O)[C@H](CCCNC(=N)N)NC(=O)[C@@H](N)CCCNC(=N)N)C(=O)NCCCC[C@H](NC(=O)[C@H](CCCNC(=N)N)NC(=O)[C@H](CCCNC(=N)N)NC(=O)[C@@H](N)CCCNC(=N)N)C(=O)N[C@@H](Cc1c[nH]c2ccccc12)C(=O)N[C@@H](Cc1c[nH]c2ccccc12)C(=O)N[C@@H](Cc1c[nH]c2ccccc12)C(=O)N[C@@H](Cc1c[nH]c2ccccc12)C(=O)N[C@@H](Cc1c[nH]c2ccccc12)C(N)=O`, the MIC (commonly the smallest concentration in the dilution series that meets the test's criterion for growth inhibition) in data set [1] was found to be 16 µM (≈ 32.2 µg/mL); in data set [3] it was 16 µM (≈ 32.2 µg/mL); in data set [4], 32 µM (≈ 64.4 µg/mL); in data set [5], 16 µM (≈ 32.2 µg/mL); in data set [7], 8 µM (≈ 16.1 µg/mL); in data set [8], 16 µM (≈ 32.2 µg/mL). Besides, the MHC10 in data set [2] amounted to 91.08 µM. Also, the cytotoxic concentration (CC50) (in general, the concentration that lowers cell viability or growth by half) at 1 h in data set [6] stood at 41.4 µM.
As to `N=C(N)NCCC[C@H](NC(=O)[C@H](CCCNC(=N)N)NC(=O)[C@H](CCCNC(=N)N)NC(=O)[C@H](CCCNC(=N)N)NC(=O)[C@H](CCCNC(=N)N)NC(=O)[C@H](CCCNC(=N)N)NC(=O)[C@H](CCCNC(=N)N)NC(=O)[C@H](CCCCNC(=O)[C@H](Cc1c[nH]c2ccccc12)NC(=O)[C@H](Cc1c[nH]c2ccccc12)NC(=O)[C@@H](N)Cc1c[nH]c2ccccc12)NC(=O)[C@H](Cc1c[nH]c2ccccc12)NC(=O)[C@H](Cc1c[nH]c2ccccc12)NC(=O)[C@@H](N)Cc1c[nH]c2ccccc12)C(N)=O`, the MIC in data set [1] amounted to 16 µM (≈ 37.7 µg/mL); in data set [3], 64 µM (≈ 151 µg/mL); in data set [4], 32 µM (≈ 75.4 µg/mL); in data set [5] it was 32 µM (≈ 75.4 µg/mL); in data set [7], 16 µM (≈ 37.7 µg/mL); in data set [8] it was 16 µM (≈ 37.7 µg/mL). Moreover, the MHC10 in data set [2] was found to be 17.53 µM. In addition, in data set [6], the CC50 at 1 h came to 41.9 µM.
Regarding `N=C(N)NCCC[C@H](N)C(=O)NCCCC[C@H](NC(=O)[C@@H](N)CCCNC(=N)N)C(=O)N[C@@H](Cc1c[nH]c2ccccc12)C(N)=O` (H-Arg-Lys(Arg)-Trp-NH2), the MIC in data set [1], in data set [3], in data set [4], in data set [5], in data set [7] and in data set [8] was above 128 µM in each case. Moreover, the MHC10 in data set [2] is above 256 µM. The CC50 at 1 h in data set [6] is above 128 µM.
With `N=C(N)NCCC[C@H](N)C(=O)NCCCC[C@H](NC(=O)[C@@H](N)CCCNC(=N)N)C(=O)N[C@@H](Cc1c[nH]c2ccccc12)C(=O)N[C@@H](Cc1c[nH]c2ccccc12)C(N)=O` (H-RK(Arg)WW-NH2), the MIC was above 128 µM in data set [1]; above 128 µM in data set [3]; above 128 µM in data set [4]; above 128 µM in data set [5]; 128 µM (≈ 106 µg/mL) in data set [7]; above 128 µM in data set [8]. In addition, the MHC10 in data set [2] is above 256 µM. For the same compound, in data set [6], the CC50 at 1 h is above 128 µM.
For the compound `N=C(N)NCCC[C@H](N)C(=O)NCCCC[C@H](NC(=O)[C@@H](N)CCCNC(=N)N)C(=O)N[C@@H](Cc1c[nH]c2ccccc12)C(=O)N[C@@H](Cc1c[nH]c2ccccc12)C(=O)N[C@@H](Cc1c[nH]c2ccccc12)C(N)=O` (H-RK(Arg)WWW-NH2), the MIC in data set [1] was 32 µM (≈ 32.5 µg/mL); in data set [3], above 128 µM; in data set [4], above 128 µM; in data set [5], above 128 µM; in data set [7] it was 32 µM (≈ 32.5 µg/mL); in data set [8], 32 µM (≈ 32.5 µg/mL). In data set [2], the MHC10 was above 256 µM. Also, in data set [6], the CC50 at 1 h is above 128 µM.
In the case of `N=C(N)NCCC[C@H](NC(=O)[C@@H](N)CCCNC(=N)N)C(=O)NCCCC[C@H](NC(=O)[C@H](CCCNC(=N)N)NC(=O)[C@@H](N)CCCNC(=N)N)C(=O)N[C@@H](Cc1c[nH]c2ccccc12)C(=O)N[C@@H](Cc1c[nH]c2ccccc12)C(=O)N[C@@H](Cc1c[nH]c2ccccc12)C(N)=O` (H-RRK([Arg-Arg])WWW-NH2), the MIC in data set [1] is 16 µM (≈ 21.3 µg/mL); in data set [3] it was 64 µM (≈ 85 µg/mL); in data set [4], above 128 µM; in data set [5] it was 16 µM (≈ 21.3 µg/mL); in data set [7] it was 4 µM (≈ 5.31 µg/mL); in data set [8], 16 µM (≈ 21.3 µg/mL). In data set [2], the MHC10 is above 256 µM. Besides, the CC50 at 1 h in data set [6] is above 128 µM.
On to `N=C(N)NCCC[C@H](NC(=O)[C@@H](N)CCCNC(=N)N)C(=O)NCCCC[C@H](NC(=O)[C@H](CCCNC(=N)N)NC(=O)[C@@H](N)CCCNC(=N)N)C(=O)N[C@@H](Cc1c[nH]c2ccccc12)C(=O)N[C@@H](Cc1c[nH]c2ccccc12)C(=O)N[C@@H](Cc1c[nH]c2ccccc12)C(=O)N[C@@H](Cc1c[nH]c2ccccc12)C(=O)N[C@@H](Cc1c[nH]c2ccccc12)C(N)=O` (H-RRK([Arg-Arg])WWWWW-NH2), for which the minimal inhibitory concentration (MIC) in data set [1] was 16 µM (≈ 27.2 µg/mL); in data set [3] it was 16 µM (≈ 27.2 µg/mL); in data set [4], 32 µM (≈ 54.4 µg/mL); in data set [5] it was 16 µM (≈ 27.2 µg/mL); in data set [7] it was 8 µM (≈ 13.6 µg/mL); in data set [8] it was 16 µM (≈ 27.2 µg/mL). Besides, in data set [2], the MHC10 turned out to be 51.32 µM. Besides, in data set [6], the CC50 at 1 h was 58.8 µM.
Turning to `N=C(N)NCCC[C@H](NC(=O)[C@@H](N)CCCNC(=N)N)C(=O)N[C@@H](CCCCN)C(=O)N[C@@H](Cc1c[nH]c2ccccc12)C(N)=O` (H-RRKW-NH2), the minimal inhibitory concentration (MIC) in data set [1], in data set [3], in data set [4], in data set [5], in data set [7] and in data set [8] was above 128 µM in each case. Besides, the MHC10 in data set [2] is above 256 µM. The CC50 at 1 h in data set [6] was above 128 µM.
For the compound `N=C(N)NCCC[C@H](NC(=O)[C@H](CCCNC(=N)N)NC(=O)[C@@H](N)CCCNC(=N)N)C(=O)NCCCC[C@H](NC(=O)[C@H](CCCNC(=N)N)NC(=O)[C@H](CCCNC(=N)N)NC(=O)[C@@H](N)CCCNC(=N)N)C(=O)N[C@@H](Cc1c[nH]c2ccccc12)C(=O)N[C@@H](Cc1c[nH]c2ccccc12)C(=O)N[C@@H](Cc1c[nH]c2ccccc12)C(=O)N[C@@H](Cc1c[nH]c2ccccc12)C(=O)N[C@@H](Cc1c[nH]c2ccccc12)C(=O)N[C@@H](Cc1c[nH]c2ccccc12)C(N)=O` (H-RRRK([Arg-Arg-Arg])WWWWWW-NH2), the MIC in data set [1] is 32 µM (≈ 70.4 µg/mL); in data set [3], 32 µM (≈ 70.4 µg/mL); in data set [4] it was 32 µM (≈ 70.4 µg/mL); in data set [5] it was 32 µM (≈ 70.4 µg/mL); in data set [7], 16 µM (≈ 35.2 µg/mL); in data set [8] it was 32 µM (≈ 70.4 µg/mL). Besides, the MHC10 in data set [2] stood at 22.12 µM. Besides, the CC50 at 1 h in data set [6] turned out to be 34 µM.
Consider `N=C(N)NCCC[C@H](NC(=O)[C@H](CCCNC(=N)N)NC(=O)[C@@H](N)CCCNC(=N)N)C(=O)NCCCC[C@H](NC(=O)[C@H](CCCNC(=N)N)NC(=O)[C@H](CCCNC(=N)N)NC(=O)[C@@H](N)CCCNC(=N)N)C(=O)N[C@@H](Cc1c[nH]c2ccccc12)C(=O)N[C@@H](Cc1c[nH]c2ccccc12)C(=O)N[C@@H](Cc1c[nH]c2ccccc12)C(=O)N[C@@H](Cc1c[nH]c2ccccc12)C(=O)N[C@@H](Cc1c[nH]c2ccccc12)C(=O)N[C@@H](Cc1c[nH]c2ccccc12)C(=O)N[C@@H](Cc1c[nH]c2ccccc12)C(N)=O` (H-RRRK([Arg-Arg-Arg])WWWWWWW-NH2), for which the MIC was found to be 32 µM (≈ 76.3 µg/mL) in data set [1]; 64 µM (≈ 153 µg/mL) in data set [3]; 16 µM (≈ 38.2 µg/mL) in data set [4]; 64 µM (≈ 153 µg/mL) in data set [5]; 16 µM (≈ 38.2 µg/mL) in data set [7]; 16 µM (≈ 38.2 µg/mL) in data set [8]. The MHC10 in data set [2] is 12.98 µM. Moreover, the CC50 at 1 h in data set [6] stood at 53.5 µM.
Consider `N=C(N)NCCC[C@H](NC(=O)[C@H](CCCCNC(=O)[C@@H](N)Cc1c[nH]c2ccccc12)NC(=O)[C@@H](N)Cc1c[nH]c2ccccc12)C(N)=O` (H-Trp-Lys(Trp)-Arg-NH2), for which the MIC in data set [1] is above 128 µM; in data set [3], above 128 µM; in data set [4], above 128 µM; in data set [5], above 128 µM; in data set [7] it was 128 µM (≈ 86.2 µg/mL); in data set [8] it was above 128 µM. The MHC10 in data set [2] is above 256 µM. Besides, the CC50 at 1 h in data set [6] is above 128 µM.
With `N=C(N)NCCC[C@H](NC(=O)[C@H](CCCNC(=N)N)NC(=O)[C@H](CCCCNC(=O)[C@@H](N)Cc1c[nH]c2ccccc12)NC(=O)[C@@H](N)Cc1c[nH]c2ccccc12)C(N)=O` (H-WK(Trp)RR-NH2), the MIC in data set [1], in data set [3], in data set [4], in data set [5], in data set [7] and in data set [8] was above 128 µM in each case. In addition, the MHC10 in data set [2] was above 256 µM. In addition, the 50% cytotoxic concentration (CC50) at 1 h in data set [6] was above 128 µM.
On to `N=C(N)NCCC[C@H](NC(=O)[C@H](CCCNC(=N)N)NC(=O)[C@H](CCCNC(=N)N)NC(=O)[C@H](CCCCNC(=O)[C@@H](N)Cc1c[nH]c2ccccc12)NC(=O)[C@@H](N)Cc1c[nH]c2ccccc12)C(N)=O` (H-WK(Trp)RRR-NH2), for which the MIC in data set [1], in data set [3], in data set [4], in data set [5], in data set [7] and in data set [8] was above 128 µM throughout. For the same compound, in data set [2], the MHC10 is above 256 µM. In addition, in data set [6], the CC50 at 1 h is above 128 µM.
For `CN[C@H](CC(C)C)C(=O)N[C@H]1C(=O)N[C@@H](CC(N)=O)C(=O)N[C@H]2C(=O)N[C@H]3C(=O)N[C@H](C(=O)N[C@H](C(=O)O)c4cc(O)cc(O)c4-c4cc3ccc4O)[C@H](O)c3ccc(c(Cl)c3)Oc3cc2cc(c3O[C@@H]2O[C@H](CO)[C@@H](O)[C@H](O)[C@H]2O[C@H]2C[C@](C)(N)[C@H](O)[C@H](C)O2)Oc2ccc(cc2Cl)[C@H]1O` [VANCOMYCIN], the MIC was below 1 µM in data set [1]; 128 µM (≈ 186 µg/mL) in data set [3]; 64 µM (≈ 92.8 µg/mL) in data set [4]; 64 µM (≈ 92.8 µg/mL) in data set [5]; below 1 µM in data set [7]; above 128 µM in data set [8].
